According to patent US6686496B1, “Treatment of myeloma” (University of Central Florida, priority 2001, dated 2004):

What was measured:
[1] = test system: human myeloma cells (ATCC CCL155); assay: Cytotoxicity assay: growth inhibition of CCL155 cells, MTS/PMS readout; assay type: cell-based; details: Table 1, approximately 48 hours with test compound, concentration not given
Experimental: The anticancer activity against human myeloma of the novel compounds (as earlier reported) was realized by the following procedure which determines the inhibitory effect of test samples on the growth of human myeloma cells.
[…]
(ATCC CCL155) The CCL155 cells are grown in RPMI 1640 media+20% Fetal bovine serum+4.5 g/L glucose+10 mM HEPES+1.0 mM sodium pyruvate+1% Antibiotic/Antimycotic for approximately 48 hours at 37° C./5% CO2 in the presence of the test compound.
Growth/Non-Growth of the cells (e.g., cell density) is determined using Promega's MTS/PMS assay system. MTS (3-(4,5-dimethylthiazol-2-yl)-5-(3-carboxymethoxyphenyl)-2-(4-sulfophenyl)-2H-tetrazolium, inner salt) is an aqueous compound that is reduced to soluble formazan by the presence of NADH formed by dehydrogenases present within the CCL155 cells. The absorbance of the formazan can be measured at 490 nm and is directly proportional to the number of living cells present in the culture. PMS (Phenazine Methosulfate) is added an electron coupling reagent and greatly increases the rate of reduction.
To facilitate a full understanding of the procedure the following definitions are offered:
Test wells—wells containing test sample and Diluted CCL155 cells
Test values—absorbance of test wells
Blank wells—wells containing test sample and CCL155 media (C155-01S); used to obtain background absorbance due to test sample
Blank values—absorbance of blank wells
Negative Control—maximal cell growth; results of test samples will be expressed as a percent of the Negative Control
Positive Control—known inhibitor of CCL155 cells; used to validate assay system
Matrix—solvent that the samples are prepared/diluted in […]
Blank values will be determined for each sample to account for any color contribution due to the sample itself. […] After completion of MTS/PMS reaction blank values will be subtracted from the test value to obtain a net absorbance that will be used to calculate cell density. […]
In order to establish the accuracy of this assay a Positive Control consisting of 50 μM Methotrexate […] of the Negative Control (CCL155 cells are somewhat resistant to methotrexate) is utilized.
In order to establish the accuracy of this assay a Positive Control consisting of 50 μM Methotrexate should show less than 75% of the net absorbance of the Negative Control is utilized.

white mice = assay: Animal toxicity bioassay: acute toxicity, intraperitoneal injection, LD50 by Litchfield and Wilkinson; assay type: in vivo; details: Table 1, observed 14 days
Experimental: (§1) Acute toxicity was studied on white mice of both sexes with weight ranging between 18-26 grams under intraperitoneal injection of 2% solution of tested compound in starch (the compound was dissolved in starch slime and injected) on the basis of 0.1 ml of solution per 10 g of the animal weight. Each dose was tested on the group of 6 animals that were observed during 14 days period.

[2] = as above; assay type: in vivo; details: both sexes, mouse, in vivo, ip, white mice, observed 14 days
Experimental: as §1

[3] = Solubility in solvents and water
mice = details: cited from earlier work
Stability in solutions = assay type: physicochemical; details: solution heated or stored for a long time; forms OF-12

Compound	Activity (ATCC CCL155) [1] [%]	LD50 at 14 days [2] [mg/kg]	Solubility in DMSO, DMFA, dichloroethane, acetonitrile [3]	Solubility in water [3]	further results
COC(=O)C(=CC(=O)C(C)(C)C)NN=C1c2ccccc2-c2ccccc21 [OF-06, 2-(N′-Fluoren-9-ylidene-hydrazino)-5,5-dimethyl-4-oxo-hex-2-enoic acid methyl ester]	82	> 3000	highly soluble	–	LD50 (white mice): >3000 mg/kg; Solubility in ethanol, tetrachloromethane ([3]; ethanol, tetrachloromethane): slightly soluble; Solubility in hexane ([3]; hexane): insoluble
COC(=O)/C(=C/C(=O)c1ccccc1)NN=C1c2ccccc2-c2ccccc21 [1F-04, 2-(N′-Fluoren-9-ylidene-hydrazino)-4-oxo-4-phenyl-but-2-enoic acid methyl ester]	93	> 1000	highly soluble	insoluble	–
CCOc1ccc(/C(Cl)=C/C(=N\N=C2c3ccccc3-c3ccccc32)C(=O)OC)cc1 [3F-19, 4-Chloro-4-(4-ethoxy-phenyl)-2-(fluoren-9-ylidene-hydrazono)-but-3-enoic acid methyl ester]	100	–	–	–	LD50 (white mice): >200 mg/kg
N[C@@H](Cc1ccc(N(CCCl)CCCl)cc1)C(=O)O [Melphalan]	–	–	–	–	Toxicity: LD50 in mice (mice): 23 mg/kg
CCOc1ccc(C(=O)CC(O)(NN=C2c3ccccc3-c3ccccc32)C(=O)OC)cc1 (stereo not drawn) [OF-13, 4-(4-Ethoxy-phenyl)-2-(N′-fluoren-9-ylidene-hydrazino)-2-hydroxy-4-oxo-butyric acid methyl ester]	99	> 1500	–	–	Stability in solutions (Stability in solutions): not stable in solutions and decomposes quickly when the solution is heated or stored for a long time
COC(=O)/C(=C/C(=O)c1ccccc1)N/N=C(\c1ccccc1)c1ccc(N(C)C)cc1 [OF-10, 2-{N′-[(4-Dimethylamino-phenyl)-phenyl-methylene]-hydrazino}-4-oxo-4-phenyl-but-2-enoic acid methyl ester]	–	> 1500	highly soluble	insoluble	Solubility in chloroform [3]: highly soluble
COC(=O)C(=CC(=O)c1ccc(Cl)cc1)NN=C1c2ccccc2-c2ccccc21 [OF-07, 4-(4-Chloro-phenyl)-2-(N′-fluoren-9-ylidene-hydrazino)-4-oxo-but-2-enoic acid methyl ester]	–	> 750	highly soluble	insoluble	–
COC(=O)/C(=C/C(=O)c1ccccc1)N/N=C(\C)c1ccc(Cl)cc1 [OF-20, 2-{N′-[1-(4-Chloro-phenyl)-ethylidene]-hydrazino}-4-oxo-4-phenyl-but-2-enoic acid methyl ester]	–	> 250	highly soluble	insoluble	Solubility in chloroform [3]: highly soluble
COC(=O)/C(=C/C(=O)c1ccccc1)N/N=C(\c1ccccc1)c1ccccc1Br [OF-09, 2-{N′-[(2-Bromo-phenyl)-phenyl-methylene]-hydrazino}-4-oxo-4-phenyl-but-2-enoic acid methyl ester]	–	> 5000	highly soluble	insoluble	–
